Test results as given in publication PMC8085013, “Mixture interactions at mammalian olfactory receptors are dependent on the cellular environment” (Scientific Reports, 2021).
“Also recorded” adds a separate entry of the source.

Columns and labels:
Format in all cases: cell-based
[1] = molecular target: T1, mouse Olfr73 (Mus musculus, UniProt Q920P2); experiment: GCaMP3 calcium imaging of mouse OSNs ectopically expressing Olfr73 (rAAV2/5), 5-s odorant pulse; conditions: for Agonism/antagonism, OSN Ca2+ Mouse: strong agonist 100 µM, putative antagonist 1 mM, single or as pair; for Effect on the response to eugenol in a binary mix: eugenol 100 µM or 10 µM plus putative antagonist
T1 sequence (Q920P2 1-313): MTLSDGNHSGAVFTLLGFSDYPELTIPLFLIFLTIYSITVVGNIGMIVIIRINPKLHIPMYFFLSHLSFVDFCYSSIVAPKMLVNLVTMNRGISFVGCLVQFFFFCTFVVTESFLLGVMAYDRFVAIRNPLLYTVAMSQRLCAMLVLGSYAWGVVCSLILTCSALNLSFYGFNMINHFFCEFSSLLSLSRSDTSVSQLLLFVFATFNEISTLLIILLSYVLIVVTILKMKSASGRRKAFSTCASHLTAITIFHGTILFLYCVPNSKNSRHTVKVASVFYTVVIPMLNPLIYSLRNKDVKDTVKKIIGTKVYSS

[2] = molecular target: T1, mouse Olfr73; experiment: Calcium imaging of HEK293 cells expressing Olfr73 with Gs/olf, short 5-s odorant pulse; conditions: for Effect on the response to eugenol or vanillin in a binary mix: agonist 100 µM, test ligand 1 mM; for Agonism/antagonism, HEK293 short odor Ca2+ Gs/olf: strong agonist 100 µM, putative antagonist 1 mM, single or as pair
[3] = molecular target: T1, mouse Olfr73; experiment: cell-based; conditions: for Response to ligand applied alone: HEK293, Gαq11/ß1/γ13, 5-s pulse; for Agonism/antagonism, HEK293 short odor Ca2+ Gq11: 5-s pulse, strong agonist 100 µM, putative antagonist 1 mM, single or as pair
[4] = molecular target: T1, mouse Olfr73; experiment: Calcium imaging of HEK293 cells expressing Olfr73 with Gα15, short 5-s odorant pulse; conditions: for Response to ligand applied alone: HEK293, Gα15, 5-s pulse; for Effect on the response to eugenol in a binary mix: HEK293, Gα15, eugenol 100 µM; for Agonism/antagonism, HEK293 short odor Ca2+ G15: 5-s pulse, strong agonist 100 µM, putative antagonist 1 mM, single or as pair
[5] = molecular target: T1, mouse Olfr73; experiment: GCaMP3 calcium imaging of HEK293T cells co-transfected with pTR-Olfr73-furin2A-GCaMP3 (untagged Olfr73) and Gα15, 5-s pulse; conditions: for Response to ligand applied alone: HEK293T, untagged Olfr73, Gα15, 5-s pulse
[6] = molecular target: T1, mouse Olfr73; experiment: GCaMP3 calcium imaging of rat OSNs ectopically expressing Olfr73 (rAAV2/5), 5-s odorant pulse
[7] = molecular target: T1, mouse Olfr73; experiment: cAMP-dependent Ca2+ influx (CNGCmut, GCaMP3) in HEK293 cells with untagged Olfr73 and Gs/olf, 10-min odorant; conditions: for Response to ligand applied alone, prolonged: 10-min application; for Response to ligand applied alone, prolonged / Agonism/antagonism, HEK293 long odor Ca2+ Gs/olf: eugenol 100 µM, MIEG 1 mM; for Agonism/antagonism, HEK293 long odor Ca2+ Gs/olf: prolonged 10-min odorant application
[8] = molecular target: T1, mouse Olfr73; experiment: Cre-SEAP cAMP reporter assay, HEK293 cells co-expressing untagged Olfr73 and Gs/olf, prolonged odorant
Protocol: cAMP production was measured as previously described. HEK293T cells were co-transfected with a guanine nucleotide exchange factor Ric-8b (50 ng; a gift from Dr. Malnic, Universidade de São Paulo, Brazil), Gαolf (50 ng), RTP1s (100 ng) and untagged Olfr73 (1.5 μg). Cells were also transfected with 1.5 μg of a pCRE-SEAP, where the expression of the secreted alkaline phosphatase (SEAP) is under regulation of the cAMP responsive element. A plasmid pTAL-SEAP missing the Cre element was used as a negative control. Cells were also transfected with 50 ng of a pcDNA5/TO/LacZ (Invitrogen) for DNA concentration normalization. At 24 h post-transfection, the cells were re-seeded for SEAP analysis and odorants were added at the indicated dilutions at 48 h post-transfection. […] The supernatants were incubated for 30 min at 65 °C and then frozen until analysis. The cell pellets were washed with PBS and then lysed with reporter lysis buffer for β-galactosidase measurement following the manufacturer’s instructions (Promega). SEAP activity was measured by mixing 100 μl of supernatant with an equal amount of BluePhos substrate (KPL). Samples were monitored for color development at 630 nm in a microwell plate reader. SEAP activity was calculated by subtracting the responses of cells transfected in parallel with pTAL-SEAP and normalizing to β-gal activity. Average SEAP activity was determined after subtracting the response of cells not expressing an OR and is reported in arbitrary units ± standard deviation.

[9] = molecular target: Olfr599 (Mus musculus, UniProt Q8VG01); experiment: GCaMP3 calcium imaging of mouse OSNs ectopically expressing Olfr599 (rAAV2/5); conditions: each at 100 µM, 5-s pulse
Sequence of Olfr599 (Q8VG01 entry or part of it): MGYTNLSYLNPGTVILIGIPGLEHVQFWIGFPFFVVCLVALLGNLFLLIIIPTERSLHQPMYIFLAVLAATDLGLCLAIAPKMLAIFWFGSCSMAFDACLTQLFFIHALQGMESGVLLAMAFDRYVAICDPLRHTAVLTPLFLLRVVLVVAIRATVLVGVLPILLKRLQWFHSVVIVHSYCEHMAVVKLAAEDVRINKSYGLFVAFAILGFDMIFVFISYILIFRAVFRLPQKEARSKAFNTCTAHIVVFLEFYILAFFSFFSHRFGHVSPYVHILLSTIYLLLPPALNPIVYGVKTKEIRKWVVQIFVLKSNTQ
Protocol: Animals 4–6 weeks of age were used for experiments 7–21 days post-inoculation with rAAV2/5 encoding OR-furin2A-GCaMP3. Calcium imaging was performed as detailed previously. Tissue was prepared and mounted with the apical surface facing up. The chamber was transferred to the stage of an upright microscope (Zeiss Axioskop-2F) equipped with a 40×/0.75NA long distance water-immersion objective lens. Experimental solutions were applied for a duration of 5 s directly to the field of view through a 100 µm diameter needle made of fused silica and connected to a 9-channel Teflon manifold. Solution application was controlled by electronic valves (VC-6, Warner Instruments). The calcium response is presented as an increase of GCaMP3 fluorescence originating from the knob and underlying dendrite. The tissue was illuminated using a standard eGFP filter cube BP490 nm/ 535 nm (Omega Optical, USA) and the emitted light was collected at 530 nm (BP 530/20 nm, Omega Optical, USA) by a 12-bit cooled CCD camera (ORCA R2, Hamamatsu, Japan). […] Before processing, fluorescence intensity was corrected for the background. Each knob was assigned a region of interest (ROI) and changes in fluorescence intensity within each ROI were analyzed and expressed as the peak fractional change in fluorescent light intensity (F-Fo)/Fo where Fo is the baseline fluorescence before application of experimental solutions.

[10] = HEK293, vanillin 100 µM, MIEG 1 mM

For `CCCCCOC(C)=O` [Amyl acetate, amyl acetate], the “Response to ligand applied alone” value ([1]; mouse Olfr73-OSNs, 5-s pulse) was “variable responses”.

With `C=C(C)C1CC=C(C)C(=O)C1` (stereo not drawn) [Carvone] the “Response to ligand applied alone” value ([2]; HEK293, Gs/olf, 5-s pulse) was “did not activate any response”, the “Effect on the response to eugenol or vanillin in a binary mix” value ([2]; HEK293, Gs/olf) was “no inhibiting effect” and the “Response to ligand applied alone” value [3] was “non-agonist”. The “Effect on the response to eugenol in a binary mix” value ([3]; HEK293, eugenol 100 µM, test ligand 1 mM, also with 30-s pre-incubation) was “no antagonism; also recorded: failed to antagonize”, the “Response to ligand applied alone” value [4] was “non-agonist” and the “Effect on the response to eugenol in a binary mix” value [4] was “incapable”.

`C=CCc1ccc(O)c(OC)c1` [Eugenol, eugenol] was tested, and the “Agonism/antagonism, HEK293 short odor Ca2+ Gs/olf” value ([2]; 5-s pulse) was “Agonist”, the “Response to ligand applied alone” value [5] was “robustly activated” and the “Response to ligand applied alone” value ([5]; listed as eugenol) was “robust elevation of intracellular calcium; also recorded: robust calcium signal”. The “Response to ligand applied alone” value [3] was “consistently activated calcium release”, the EC50 ([3]; HEK293 short odor Ca2+, Gq11, response normalized to 5 mM eugenol) was 184 ± 62 µM and the EC50 [6] was 41 ± 12 µM. For the same compound, the “Sensitivity of rat versus mouse Olfr73-OSNs” value ([6]; from EC50 values) was “nearly tenfold less sensitive”, the “Response to ligand applied alone, prolonged” value [7] was “sustained cAMP-dependent calcium influx” and the “Agonism/antagonism, HEK293 long odor Ca2+ Gs/olf” value [7] was “Agonist”. For the same compound, the EC50 ([8]; HEK293 long odor, Cre/SEAP, Gs/olf, untagged Olfr73) was 205 ± 27 µM, the EC50 [1] was 4.8 ± 1.1 µM and the “Response to ligand applied alone” value ([1]; mouse Olfr73-OSNs, 5-s pulse) was “strongly activated; also recorded: consistently evoked a response in all cells”. For the same compound, the “Agonism/antagonism, HEK293 short odor Ca2+ G15” value [4] was “Agonist”.

For `C/C=C/c1ccc2c(c1)OCO2` [Isosafrole], the “Agonism/antagonism, HEK293 short odor Ca2+ Gs/olf” value ([2]; 5-s pulse) was “Antagonist”, the “Agonism/antagonism, HEK293 short odor Ca2+ Gq11” value [3] was “Antagonist” and the “Agonism/antagonism, OSN Ca2+ Mouse” value ([1]; 5-s pulse) was “Agonist”. For the same compound, the “Response relative to the response to eugenol” value ([1]; ligand 1 mM, 5-s pulse, Olfr73-OSNs) was 25% and the “Agonism/antagonism, HEK293 short odor Ca2+ G15” value [4] was “Antagonist”.

In the case of `C/C=C/c1ccc(OC)c(OC)c1` [Methylisoeugenol, methylisoeugenol], the “Agonism/antagonism, HEK293 short odor Ca2+ Gs/olf” value ([2]; 5-s pulse) is reported as “Antagonist”, the “Effect on the response to eugenol or vanillin in a binary mix” value ([2]; HEK293, Gs/olf) is reported as “antagonized” and the “Response to ligand applied alone” value ([5]; listed as MIEG) is reported as “did not evoke any response; also recorded: did not elicit any response”. The “Effect on the response to eugenol in a binary mix” value ([5]; eugenol 100 µM, MIEG 1 mM, 5-s pulse) was “reduced the response; also recorded: significantly diminished”, the “Agonism/antagonism, HEK293 short odor Ca2+ Gq11” value [3] was “Antagonist” and the “Effect on the response to vanillin, 30-s pre-incubation” value [3, 10] was “near complete inhibition; also recorded: almost completely blocked”. The “Effect on the response to vanillin, co-application” value [3, 10] was “only partially inhibited”, the “Agonism/antagonism, OSN Ca2+ Rat” value ([6]; 5-s pulse, strong agonist 100 µM, putative antagonist 1 mM) was “Agonist” and the “Response to ligand applied alone, prolonged” value [7] was “more slowly developing cAMP-dependent calcium influx; also recorded: significantly smaller than eugenol”. For the same compound, the “Response to mixture with eugenol versus eugenol alone, prolonged” value ([7]; 10 min, eugenol 100 µM and MIEG 1 mM) was “no significant difference”, the “Agonism/antagonism, HEK293 long odor Ca2+ Gs/olf” value [7] was “Agonist” and the “Agonism/antagonism, HEK293 long odor Cre/SEAP Gs/olf” value ([8]; prolonged 30-min odorant application) was “Agonist”. The “Response to ligand applied alone, Cre-SEAP” value ([8]; prolonged application, 0 µM eugenol) was “generated cAMP”, the “Interaction with eugenol in a binary mix, Cre-SEAP” value ([8]; several concentrations of eugenol and MIEG, prolonged incubation) was “no antagonistic interaction” and the “Response to ligand applied alone” value ([1]; mouse Olfr73-OSNs, 5-s pulse) was “evoked a measurable response”. For the same compound, the “Response to ligand applied alone” value ([1]; mouse Olfr73-OSNs, 5-s pulse, listed as MIEG) was “partial agonist”, the “Response to ligand applied alone” value ([1]; mouse Olfr73-OSNs, 5-s pulse, listed as methylisoeugenol) was “also elicited a response” and the EC50 ([1]; mouse Olfr73-OSNs, Ca2+ (GCaMP3), 5-s odorant pulse, read-out: EC50) was 430 ± 130 µM. For the same compound, the “Effect on the response to eugenol in a binary mix” value ([1]; mouse Olfr73-OSNs, listed as MIEG) was “did not reduce the response; also recorded: not significantly changed”, the “Agonism/antagonism, HEK293 short odor Ca2+ G15” value [4] was “Antagonist” and the “Effect on the response to vanillin, 30-sec pre-incubation” value ([4]; HEK293, Gα15, vanillin 100 µM, MIEG 1 mM) was “complete inhibition”.

In the case of `COc1cc(C=O)ccc1O` [Vanillin, vanillin], the “Agonism/antagonism, HEK293 short odor Ca2+ Gs/olf” value ([2]; 5-s pulse) is reported as “Agonist”.

With `CC(=O)c1ccccc1` [acetophenone] the “Response to ligand applied alone” value ([1]; mouse Olfr73-OSNs, 5-s pulse) was “variable responses”.

For `C=CCc1cc(OC)c(O)c(-c2cc(CC=C)cc(OC)c2O)c1` [di-Eugenol], the “Agonism/antagonism, HEK293 short odor Ca2+ Gs/olf” value ([2]; 5-s pulse) was “Antagonist”, the “Agonism/antagonism, HEK293 short odor Ca2+ Gq11” value [3] was “Antagonist” and the “Agonism/antagonism, OSN Ca2+ Mouse” value ([1]; 5-s pulse) was “Inactive”. The “Response to ligand applied alone” value ([1]; mouse Olfr73-OSNs, 5-s pulse) was “failed to activate any response”, the “Response to ligand applied alone” value ([1]; mouse Olfr73-OSNs, 5-s pulse, listed as di-EG) was “did not elicit any response” and the “Agonism/antagonism, HEK293 short odor Ca2+ G15” value [4] was “Antagonist”.

In the case of `CCC1c2cc(OC)c(O)cc2C(c2ccc(O)c(OC)c2)C1C` (stereo not drawn) [di-Isoeugenol], the “Agonism/antagonism, HEK293 short odor Ca2+ Gs/olf” value ([2]; 5-s pulse) is reported as “Antagonist”, the “Agonism/antagonism, HEK293 short odor Ca2+ Gq11” value [3] is reported as “Antagonist” and the “Agonism/antagonism, OSN Ca2+ Mouse” value ([1]; 5-s pulse) is reported as “Inactive”. For the same compound, the “Response to ligand applied alone” value ([1]; mouse Olfr73-OSNs, 5-s pulse, listed as di-IEG) was “did not elicit any response; also recorded: failed to activate any response”, the “Effect on the response to eugenol in a binary mix” value ([1]; mouse Olfr73-OSNs, listed as di-IEG) was “not able to antagonize; also recorded: additive increase” and the “Agonism/antagonism, HEK293 short odor Ca2+ G15” value [4] was “Antagonist”. The “Response to ligand applied alone” value [4] was “is not an agonist” and the “Effect on the response to eugenol in a binary mix” value [4] was “antagonizes eugenol”.

`CCCCCCCC=O` [octanal] was tested, and the “Response to ligand applied alone” value [9] was “evoked reliable neuronal responses”.
